PubChem BioAssay AID330 (DTP/NCI, 2004)
“And” between values parts separate entries of the source, which are not always exact repeats. Equal entries are not always repeated. Inconclusive results and toxic doses are left out.

Tested on: P388 leukemia ip, CD2F1 mice, survival T/C
Test: NCI In Vivo Anticancer Drug Screen. Data for tumor model P388 Leukemia (intraperitoneal) in CD2F1 (CDF1) mice
Settings: endpoint: median survival time, higher = longer survival
Summary of the method: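 Mice carrying the transplanted tumor received test compound or vehicle. Survival was recorded in each group, and the value is the treated-group measurement divided by that of the vehicle-treated control group.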

[1] = dose: 50.0 mg/kg/injection, schedule: Q01DX005 (ip), vehicle: saline with Tween-80
[2] = dose: 100.0 mg/kg/injection, schedule: Q01DX005 (ip), vehicle: saline with Tween-80
[3] = dose: 60.0 mg/kg/injection, schedule: Q01DX005 (ip), vehicle: saline with Tween-80
[4] = dose: 120.0 mg/kg/injection, schedule: Q01DX005 (ip), vehicle: saline with Tween-80
[5] = dose: 240.0 mg/kg/injection, schedule: Q01DX005 (ip), vehicle: saline with Tween-80

In the case of `O=C1N[C@H]2[C@H](O)[C@H](O)[C@@H](O)[C@H](O)[C@@H]2c2cc3c(c(O)c21)OCO3`, the T/C (dose: 0.18 mg/kg/injection, schedule: Q01DX009 (ip), vehicle: saline + Tween-80 + alcohol) is reported as 113 % of control, the T/C (dose: 0.37 mg/kg/injection, schedule: Q01DX009 (ip), vehicle: saline + Tween-80 + alcohol) is reported as 122 % of control and the T/C (dose: 0.38 mg/kg/injection, schedule: Q01DX005 (iv), vehicle: other) is reported as 105 % of control. The T/C (dose: 0.38 mg/kg/injection, schedule: Q01DX009 (ip), vehicle: saline + alcohol) was 119 % of control, the T/C (dose: 0.75 mg/kg/injection, schedule: Q01DX005 (ip), vehicle: other) was 122 % of control and the T/C (dose: 0.75 mg/kg/injection, schedule: Q01DX005 (ip), vehicle: saline + alcohol) was 116 % of control. The T/C (dose: 0.75 mg/kg/injection, schedule: Q01DX005 (iv), vehicle: other) was 105 % of control, the T/C (dose: 1.5 mg/kg/injection, schedule: Q01DX005 (iv), vehicle: other) was 106 % of control and the T/C (dose: 3.0 mg/kg/injection, schedule: Q01DX005 (iv), vehicle: other) was 108 % of control. The T/C (dose: 3.0 mg/kg/injection, schedule: Q01DX009 (ip), vehicle: saline + Tween-80 + alcohol) was 160 % of control, the T/C (dose: 3.0 mg/kg/injection, schedule: Q01DX009 (ip), vehicle: saline + alcohol) was 161 % of control and the T/C (dose: 3.12 mg/kg/injection, schedule: Q01DX009 (ip), vehicle: saline + alcohol) was 151 % of control. The T/C (dose: 6.0 mg/kg/injection, schedule: Q01DX005 (ip), vehicle: other) was 152 % of control, the T/C (dose: 6.0 mg/kg/injection, schedule: Q01DX005 (iv), vehicle: other) was 121 % of control and the T/C (dose: 6.0 mg/kg/injection, schedule: Q01DX009 (ip), vehicle: saline + Tween-80 + alcohol) was 162 % of control. The T/C (dose: 6.0 mg/kg/injection, schedule: Q01DX009 (ip), vehicle: saline + alcohol) was 165 % of control, the T/C (dose: 6.25 mg/kg/injection, schedule: Q01DX005 (ip), vehicle: saline + alcohol) was 105 % of control and the T/C (dose: 6.25 mg/kg/injection, schedule: Q01DX009 (ip), vehicle: saline + alcohol) was 155 % of control and 173 % of control. For the same compound, the T/C (dose: 12.0 mg/kg/injection, schedule: Q01DX005 (ip), vehicle: other) was 155 % of control, the T/C (dose: 12.0 mg/kg/injection, schedule: Q01DX005 (ip), vehicle: saline + alcohol) was 156 % of control and the T/C (dose: 12.5 mg/kg/injection, schedule: Q01DX009 (ip), vehicle: saline + alcohol) was 203 % of control.

For `Cc1ccc(S(=O)(=O)N/N=C/c2cc(I)cc(I)c2O)cc1`, the T/C [1] was 98 % of control, the T/C [2] was 100 % of control and the T/C (dose: 200.0 mg/kg/injection, schedule: Q01DX005 (ip), vehicle: saline with Tween-80) was 100 % of control.

`Nc1ccccc1N1CCNCC1` was tested, and the T/C (dose: 12.5 mg/kg/injection, schedule: Q04DX003 (ip), vehicle: saline) was 100 % of control, the T/C (dose: 25.0 mg/kg/injection, schedule: Q04DX003 (ip), vehicle: saline) was 100 % of control and the T/C (dose: 50.0 mg/kg/injection, schedule: Q04DX003 (ip), vehicle: saline) was 98 % of control and 101 % of control.

For `CN1N=C(c2ccccc2O)/C(=C/c2c(-c3ccccc3O)[nH]n(C)c2=O)C1=O`, the T/C [3] was 94 % of control, the T/C [4] was 86 % of control and the T/C [5] was 87 % of control.

For `CCn1c2ccccc2n2c(=O)c(Cc3ccccc3)c(C)c(C#N)c12`, the T/C (dose: 15.0 mg/kg/injection, schedule: Q01DX005 (ip), vehicle: saline with Tween-80) was 92 % of control, the T/C (dose: 30.0 mg/kg/injection, schedule: Q01DX005 (ip), vehicle: saline with Tween-80) was 91 % of control and the T/C [3] was 88 % of control and 89 % of control. The T/C [5] was 86 % of control.

With `O=C1OC(c2ccccc2)(c2ccccc2)CC1CC(O)(c1ccccc1)c1ccccc1` (stereo not drawn) the T/C [1] was 98 % of control and the T/C [2] was 90 % of control.

In the case of `CC(NCCN(C)C)C1CC2CCCCN2C1` (stereo not drawn), the T/C [3] is reported as 104 % of control and the T/C [4] is reported as 97 % of control.

`CCN(CC)CCNc1ccc(COC(N)=O)c2sc3ccccc3c(=O)c12` was tested, and the T/C (dose: 100.0 mg/kg/injection, schedule: Q04DX003 (ip), vehicle: saline) was 117 % of control and the T/C (dose: 200.0 mg/kg/injection, schedule: Q04DX003 (ip), vehicle: saline) was 122 % of control.

With `CCN(CC)C1=Nc2ccccc2N(c2ccccc2)C(SC)=C1` the T/C (dose: 50.0 mg/kg/injection, schedule: Q01DX005 (ip), vehicle: Klucel (hydroxypropylcellulose) (HPC)) was 111 % of control, the T/C (dose: 100.0 mg/kg/injection, schedule: Q01DX005 (ip), vehicle: Klucel (hydroxypropylcellulose) (HPC)) was 100 % of control and the T/C (dose: 200.0 mg/kg/injection, schedule: Q01DX005 (ip), vehicle: Klucel (hydroxypropylcellulose) (HPC)) was 97 % of control.
